Values joined by “and” are separate entries in the source; they are usually repeats but may differ in a detail not shown here. Equal values may be shown once.
What was measured:
T84 cells = assay: Deacetylation of 3/15ADON by T84 cells; format: in vitro ADME, human; conditions: T84, 37 °C, substrate 100 μM
Method: (§1) A498, Caco-2, T84 and HepG2 cells were used as models of human renal, small intestinal, colonic and hepatic cells, respectively. Cells were routinely grown in culture media (Dulbecco’s Modified Eagle Medium (DMEM), DMEM:F12 mixture and Minimum Essential Media (MEM) for A498/Caco-2, T84 and HepG2 cells, respectively) supplemented with 10% fetal calf serum and 1% antibiotics (streptomycin–penicillin solution). Cells were grown in 25 cm^2 ventilated flask maintained at 37 °C in a 5% CO2 incubator. Cells were routinely passed using trypsin-EDTA solution. For deacetylation experiments, cells were seeded onto 6-well plates at an initial density of 200,000 cells/cm^2. HepG2 and A498 were used 3–4 days post-seeding when confluence was reached. Caco-2 and T84 cells were let to differentiate for 10–14 days post-seeding before being used. In all cases, cells were washed three times with sterile phosphate buffer saline PBS^++ (PBS containing 100 mg/L of calcium and magnesium salts) before deacetylation assay.
Stock solutions of DON, 3ADON and 15ADON at 2 mg/mL were prepared in absolute ethanol and stored at −20 °C. […] In all cases, aliquots of the reaction solution were collected immediately (i.e., “time zero” sample) or after the indicated time period at 37 °C and analyzed by HPLC. […]

HepG2 cells = assay: Deacetylation of 3/15ADON by HepG2 cells; format: in vitro ADME, human; conditions: for Disappearance of 3/15ADON, specific activity: HepG2, 37 °C, substrate 100 μM; for % deacetylated: HepG2, 6 h incubation, 100 μM
Method: as §1
(§2) Stock solutions of DON, 3ADON and 15ADON at 2 mg/mL were prepared in absolute ethanol and stored at −20 °C. For deacetylation assay, 3- or 15ADON were incubated with cells, explants, bacteria or digestive enzymes after being diluted in PBS^++ at a final concentration of 100 μM. PBS^++ solution containing only ethanol (at 1.5% final concentration) or DON (at 100 μM) were used in parallel as negative and positive control, respectively. For cells and explants, deacetylation assay take place in 6-well plates, wells being filled with 2 mL of PBS^++ containing either ethanol, DON, 3- or 15ADON. For fecal bacteria and digestive enzyme assay, deacetylation assay was conducted in 2 mL Eppendorf tubes filled with 1.5 mL of PBS^++ containing either ethanol, DON, 3- or 15ADON. In vitro intestinal digestion by luminal enzymes was performed using porcine enzymes from Sigma-Aldrich and physiological conditions. Briefly, 3- or 15ADON were incubated with pepsin (at 1.6 mg/mL corresponding to 900 U/mL), trypsin (at 0.35 mg/mL corresponding to 6000 U/mL), pancreatic lipase (at 0.75 mg/mL corresponding to 18 U/mL) or pancreatin (at 1.23 mg/mL, lipase activity >10 U/mL, protease activity >100 U/mL, amylase activity >100 U/mL). Except for pepsin for which the digestion was conducted in HCl solution at 10 mM (pH 2.3), in vitro digestion was performed in PBS^++ (pH 7.4). Finally, deacetylation assay was also performed with commercial pooled S9 fractions from human liver, small intestine and kidneys as well as with pure recombinant human CES1 and CES2. […] In all cases, aliquots of the reaction solution were collected immediately (i.e., “time zero” sample) or after the indicated time period at 37 °C and analyzed by HPLC. […]

[1] = tested on: pepsin and pancreatic enzymes (pancreatin, trypsin, lipase); assay: Deacetylation of 3/15ADON by luminal digestive enzymes (taken together); format: in vitro ADME, porcine; conditions: percentage of sum of specific activities (Figure 8)
Method: Stock solutions of DON, 3ADON and 15ADON at 2 mg/mL were prepared in absolute ethanol and stored at −20 °C. For deacetylation assay, 3- or 15ADON were incubated with cells, explants, bacteria or digestive enzymes after being diluted in PBS^++ at a final concentration of 100 μM. PBS^++ solution containing only ethanol (at 1.5% final concentration) or DON (at 100 μM) were used in parallel as negative and positive control, respectively. For cells and explants, deacetylation assay take place in 6-well plates, wells being filled with 2 mL of PBS^++ containing either ethanol, DON, 3- or 15ADON. For fecal bacteria and digestive enzyme assay, deacetylation assay was conducted in 2 mL Eppendorf tubes filled with 1.5 mL of PBS^++ containing either ethanol, DON, 3- or 15ADON. In vitro intestinal digestion by luminal enzymes was performed using porcine enzymes from Sigma-Aldrich and physiological conditions. […] In all cases, aliquots of the reaction solution were collected immediately (i.e., “time zero” sample) or after the indicated time period at 37 °C and analyzed by HPLC. […]
Deacetylation was monitoring both in term of disappearance of 3- or 15ADON and formation of DON. […] Quantification was based on calibration with the corresponding standard using Millinium Software (Waters, Saint Quentin Falavier, France).

Caco-2 cells = assay: Deacetylation of 3/15ADON by Caco-2 cells; format: in vitro ADME, human; conditions: for Disappearance of 3/15ADON, specific activity: Caco-2, 37 °C, substrate 100 μM; for % deacetylated: Caco-2, 6 h incubation, 100 μM
Method: as §1, §2

liver explant = assay: Deacetylation of 3/15ADON by human liver explants; format: in vitro ADME; conditions: for % of deacetylation: hepatic explants, 6 h incubation, 100 μM; for Disappearance of 3/15ADON, specific activity: liver explant, 37 °C, substrate 100 μM; for Contribution to total deacetylation activity: Liver: percentage of sum of specific activities (Figure 8)
Description: Human tissue samples were obtained from patients undergoing surgery at the Hospital Nord of Marseille, unit of general and gastrointestinal surgery according to a collaborative “clinical transfer” project. The procedures were approved by the French ethic committee (CODECOH n° DC-2011-1319). Patients were from both genders (six men, three women), 31–74 years of age, all of European origin. All patients agree to use their tissues for research purposes. Samples were taken from macroscopically unaffected area as identified by the surgeon for intestinal samples or the pathologist for liver resections. Diagnoses leading to surgery were carcinoma for intestine or liver. After resection, the specimens were placed in ice-cold non-sterile Krebs solution implemented and transferred to the school of medicine on the same campus within 5 min, composition of the Krebs solution being previously described. The tissues were rinsed several times and maintained in oxygenated Krebs during 1 h for recovery before final dissection. Intestinal and hepatic resections were extensively washed and maintained in ice-cold culture media containing 1% streptomycin/penicillin solution and 50 μg/mL gentamycin. Tissues were cleaned from vascular vessels and conjunctive tissue using forceps under binocular microscope. In case of intestinal resection, muscularis and plexus were removed and only epithelial layer was kept. Intestinal and hepatic explants (wet weight of 20–30 mg) were then isolated from the cleaned resections using surgical punch (diameter of […]). […] Finally, the explants were washed 3 times with PBS^++ and transferred into 6-well plates before being used for deacetylation assay.
Stock solutions of DON, 3ADON and 15ADON at 2 mg/mL were prepared in absolute ethanol and stored at −20 °C. For deacetylation assay, 3- or 15ADON were incubated with cells, explants, bacteria or digestive enzymes after being diluted in PBS^++ at a final concentration of 100 μM. PBS^++ solution containing only ethanol (at 1.5% final concentration) or DON (at 100 μM) were used in parallel as negative and positive control, respectively. For cells and explants, deacetylation assay take place in 6-well plates, wells being filled with 2 mL of PBS^++ containing either ethanol, DON, 3- or 15ADON. For fecal bacteria and digestive enzyme assay, deacetylation assay was conducted in 2 mL Eppendorf tubes filled with 1.5 mL of PBS^++ containing either ethanol, DON, 3- or 15ADON. In vitro intestinal digestion by luminal enzymes was performed using porcine enzymes from Sigma-Aldrich and physiological conditions. Briefly, 3- or 15ADON were incubated with pepsin (at 1.6 mg/mL corresponding to 900 U/mL), trypsin (at 0.35 mg/mL corresponding to 6000 U/mL), pancreatic lipase (at 0.75 mg/mL corresponding to 18 U/mL) or pancreatin (at 1.23 mg/mL, lipase activity >10 U/mL, protease activity >100 U/mL, amylase activity >100 U/mL). Except for pepsin for which the digestion was conducted in HCl solution at 10 mM (pH 2.3), in vitro digestion was performed in PBS^++ (pH 7.4). Finally, deacetylation assay was also performed with commercial pooled S9 fractions from human liver, small intestine and kidneys as well as with pure recombinant human CES1 and CES2. S9 fractions and CES1/2 were used at 0.1 mg/mL and 5 μg/mL (corresponding to CES activity >20 U/mL), respectively. In all cases, aliquots of the reaction solution were collected immediately (i.e., “time zero” sample) or after the indicated time period at 37 °C and analyzed by HPLC. […] In all cases, the experiments were conducted in triplicate (n = 3).

Row | Structure (SMILES) | Disappearance of 3/15ADON, specific activity (T84 cells) | Disappearance of 3/15ADON, specific activity (HepG2 cells) | % deacetylated (HepG2 cells) | Contribution to total deacetylation activity: Pancreatic enzymes [1] [%] | Disappearance of 3/15ADON, specific activity (Caco-2 cells) | % deacetylated (Caco-2 cells) | % of deacetylation (liver explant) | Disappearance of 3/15ADON, specific activity (liver explant) | Contribution to total deacetylation activity: Liver (liver explant) [%]
1 | CC(=O)O[C@@H]1C[C@]2(C)[C@@]3(CO)[C@H](O)C(=O)C(C)=C[C@H]3O[C@H]1[C@@]21CO1 [3ADON, 3-acetyldeoxynivalenol] | 80 pmol/min/mg and 80 ± 24 pmol/min/mg | 902 pmol/min/mg and 902 ± 78 pmol/min/mg | 52.1% ± 4.5% | 10 | 479 pmol/min/mg and 479 ± 97 pmol/min/mg | 69.1% ± 14.3% | 54.6% ± 15.4% | 714 pmol/min/mg and 714 ± 198 pmol/min/mg | 56
2 | CC(=O)OC[C@]12[C@H](O)C(=O)C(C)=C[C@H]1O[C@@H]1[C@H](O)C[C@@]2(C)[C@]12CO2 [15ADON, 15-acetyldeoxynivalenol] | 98 pmol/min/mg and 98 ± 29 pmol/min/mg | 295 pmol/min/mg and 295 ± 41 pmol/min/mg | 16.8% ± 2.4% | 26 | 152 pmol/min/mg and 152 ± 38 pmol/min/mg | 22.4% ± 5.5% | 24.6% ± 2.8% | 330 pmol/min/mg and 330 ± 34 pmol/min/mg | 52

Source: publication PMC4999848 (Toxins, 2016)
